Measured values taken from patent EP0540099A1, “Water soluble camptothecin derivatives” (priority 1991, dated 1993).

Test system: HT-29 human colon tumor cells
Assay: Human colorectal adenocarcinoma HT-29 xenograft in vivo assay
Details: female NU/NU mice; for effect on tumor (stasis or regression): HT-29 xenograft, after 5 weeks of treatment (day 50), ratio of 1 = stasis, less than 1 = regression; for in vivo Antitumor activity (tumor wt day-50/tumor wt day-14): HT-29 s.c. xenograft, optimal dose, subcutaneously twice a week for 5 weeks from day 14
Protocol: Female NU/NU mice weighing 21 ± 2g, are used for this modified version of the test described by B.C. Giovanella, et al., Science, 246 1046 (1989). Control and test animals are injected subcutaneously in the sub-scapular region with a suspension of 10⁶ viable HT-29 human colon tumor cells on day 0. Tumors are allowed to grow for 2 weeks prior to drug administration. For each drug, several doses are chosen based on its in vitro activity against topoisomerase I. Each dose level group contains 8 animals. The test compounds are prepared in either 0.1 M acetate buffer, pH 5 (vehicle "a") or 87.5% phosphate buffered saline, 12.375% dimethylsulfoxide, and 0.125% Tween 80 (trademark of ICI America for polyoxyethylenesorbitan monooleate) (vehicle "b") and are administered subcutaneously twice a week for 5 weeks beginning on day 14. Doses are given on a mg/kg basis according to the mean body weight for each cage.
Tumor weight is calculated from two perpendicular caliper measurements of the tumor using the formula, tumor weight = length x width² ÷ 2 [formula] in millimeters. For each animal, tumor weight is monitored over the course of the experiment. For each group, the results are expressed as the ratio of the mean tumor weight immediately after 5 weeks of treatment (day 50) divided by the mean tumor weight immediately before treatment (day 14). […] The criterion for antitumor activity is at least 50% inhibition of tumor growth after 5 weeks of dosing (day 50), giving a ratio of less than or equal to ten. TABLE B

[1] = vehicle a: 0.1 M acetate buffer, pH 5
[2] = vehicle b: 87.5% phosphate buffered saline, 12.375% dimethylsulfoxide, 0.125% Tween 80

SMILES | effect on tumor (stasis or regression) | in vivo Antitumor activity (tumor wt day-50/tumor wt day-14) [1] | in vivo Antitumor activity (tumor wt day-50/tumor wt day-14) [2]
CC[C@@]1(O)C(=O)OCc2c1cc1n(c2=O)Cc2c-1nc1cc3c(cc1c2CN(C)C)OCCO3 [Example 4, 7-Dimethylaminomethylene-10, 11-ethylenedioxy-20(S)-camptothecin] | tumor stasis | – | –
CC[C@@]1(O)C(=O)OCc2c1cc1n(c2=O)Cc2c-1nc1cc3c(cc1c2CN1CCN(C)CC1)OCCO3 [Example 11, 7-(4-methylpiperazinomethylene)-10, 11-ethylenedioxy-20(S)-camptothecin] | tumor regression | 0.6^a | –
CC[C@@]1(O)C(=O)OCc2c1cc1n(c2=O)Cc2c-1nc1cc3c(cc1c2CN1CCOCC1)OCCO3 [Example 6, 7-Morpholinomethylene-10, 11-ethylenedioxy-20(S)-camptothecin] | tumor stasis | – | 1.0^b
CCN(CC)Cc1c2c(nc3cc4c(cc13)OCCO4)-c1cc3c(c(=O)n1C2)COC(=O)[C@]3(O)CC [Example 14, 7-Diethylaminomethylene-10, 11-ethylenedioxy-20(S)-camptothecin] | – | 2.0^a | –
CC[C@@]1(O)C(=O)OCc2c1cc1n(c2=O)Cc2c-1nc1cc3c(cc1c2CN1CCC1)OCCO3 [Example 22, 7-Azetidinomethylene-10, 11-ethylenedioxy-20(S)-camptothecin] | – | 1.6^a | –
CC[C@@]1(O)C(=O)OCc2c1cc1n(c2=O)Cc2c-1nc1cc3c(cc1c2CN1CCN(C)CC1)OCO3 [Example 23, 7-(4-Methylpiperazinomethylene)-10, 11-methylenedioxy-20(S)-camptothecin] | tumor regression | 0.5^a | –
CC[C@@]1(O)C(=O)OCc2c1cc1n(c2=O)Cc2c-1nc1cc3c(cc1c2CN1CCC1)OCO3 [Example 20, 7-Azetidinomethylene-10, 11-methylenedioxy-20(S)-camptothecin] | – | 1.5^a | –
CC[C@@]1(O)C(=O)OCc2c1cc1n(c2=O)Cc2c-1nc1cc3c(cc1c2CN(C)C)OCO3 [Example 2, 7-Dimethylaminomethylene-10, 11-methylenedioxy-20(S)-camptothecin] | – | – | 1.8^b
